Values joined by “and” are separate entries in the source; they are usually repeats but may differ in a detail not shown here. Equal values may be shown once.
Experiments:
[1] = tested on: Zika virus; experiment: Functional CPE-based assay to measure dose dependent changes in antiviral-drug inhibitory efficacy against Zika virus MR766 in Vero E6 miRFP670 cells (cotreated with P-gp inhibitor, CP100356). Cells are treated with antiviral candidates that are serially diluted. EC50 is reported via analysis of MTS assay as a readout of CPE. The assay has been performed by KU Leuven.; assay type: organism-based, Chlorocebus sabaeus, Vero C1008; settings: for EC90: P-gp concentration 500 nM, P-gp inhibitor CP100356
[2] = tested on: dengue virus type 2; experiment: Functional assay to measure dose dependent changes in antiviral-drug inhibitory efficacy against Dengue virus type 2 New Guinea C in Vero E6 miRFP670 cells (cotreated with P-gp inhibitor, CP100356). Cells are treated with antiviral candidates that are serially diluted, following infection, cells are fixed. EC50 is reported via analysis of fluorescence intensity using high-content imager. The …; assay type: organism-based, Chlorocebus sabaeus, Vero C1008; settings: for EC90: P-gp concentration 500 nM, P-gp inhibitor CP100356

N#Cc1ccc(-c2nc3c(C(=O)Nc4ccc5c(c4)CNC5)cc(F)cc3[nH]2)cc1
EC90 ([1]; Baseline response 0 %, Hill slope 0.2, Maximum measured 29.739 %, Maximum response 100 %, Minimum measured 4.071 %, R squared 0.256): > 50 µM
EC50 ([1]; Zika virus, Vero C1008): > 50 µM
EC90 ([1]; Zika virus, Vero C1008, Baseline response 0 %, Hill slope 0.539, Maximum measured 18.428 %, Maximum response 100 %, Minimum measured 0.213 %, R squared 0.888): > 50 µM
EC90 ([2]; Dengue virus, Vero C1008, Maximum measured 143.39 %, Minimum measured 94.915 %): > 50 µM
EC90 ([2]; Dengue virus, Vero C1008, Maximum measured 155.678 %, Minimum measured 70.057 %): > 6.25 µM
EC50 ([2]; vero c1008): > 50 µM

O=C(NCC(F)F)[C@H](Nc1cnc2c(c1)CNC2)c1cc(Cl)cc(C2CC2)c1
EC50 ([1]; Zika virus, Vero C1008): 0.828 µM
EC90 ([1]; Zika virus, Vero C1008, Baseline response 0 %, EC90 CI (lower) 1.299 uM, EC90 CI (upper) 2.383 uM, Hill slope 2.915, Maximum measured 110.454 %, Maximum response 100 %, Minimum measured 12.588 %, R squared 0.958): 1.76 µM
EC50 ([2]; Dengue virus, Vero C1008): > 50 µM
EC90 ([2]; Dengue virus, Vero C1008, Maximum measured 147.541 %, Minimum measured 99.767 %): > 50 µM

O=C(Nc1ccc2c(c1)CNC2)c1cc(Cl)cc2[nH]c(-c3cc(C4CC4)[nH]n3)nc12
EC50 ([1]; Zika virus, Vero C1008): > 0.781 µM
EC90 ([1]; Zika virus, Vero C1008, Baseline response 0 %, Hill slope 2.134, Maximum measured 7.792 %, Maximum response 100 %, Minimum measured 1.889 %, R squared 0.797): > 0.781 µM
EC50 ([2]; Dengue virus, Vero C1008): > 3.12 µM
EC90 ([2]; Dengue virus, Vero C1008, Maximum measured 213.616 %, Minimum measured 78.099 %): > 3.12 µM

O=C(Nc1ccc2c(c1)CNC2)c1cc(F)cc2nn(-c3ccccn3)nc12
EC90 ([1]; Baseline response 0 %, Hill slope 0.342, Maximum measured 8.101 %, Maximum response 100 %, Minimum measured -1.287 %, R squared 0.284): > 50 µM
EC90 ([1]; Baseline response 0 %, Hill slope -0.391, Maximum measured 8.995 %, Maximum response 100 %, Minimum measured 1.943 %, R squared 0.39): > 3.12 µM
EC50 ([1]; vero c1008): > 50 µM
EC90 ([2]; Baseline response 0 %, EC90 CI (lower) 0.77 uM, EC90 CI (upper) 2.483 uM, Hill slope -4.828, Maximum measured 102.327 %, Maximum response 100 %, Minimum measured 2.546 %, R squared 0.795): 3.44 µM
EC90 ([2]; Dengue virus, Vero C1008, Baseline response 0 %, EC90 CI (lower) 0.427 uM, EC90 CI (upper) 5.546 uM, Hill slope -1.321, Maximum measured 90.171 %, Maximum response 100 %, Minimum measured 71.834 %, R squared 0.697): > 6.25 µM
EC50 ([2]; vero c1008): > 6.25 µM and 2.18 µM

N#Cc1cccc(-c2nc3c(C(=O)Nc4ccc5c(c4)CNC5)cc(F)cc3[nH]2)c1
EC50 ([1]; Zika virus, Vero C1008): > 50 µM
EC90 ([1]; Zika virus, Vero C1008, Baseline response 0 %, Hill slope 0.393, Maximum measured 36.291 %, Maximum response 100 %, Minimum measured 0.187 %, R squared 0.325): > 50 µM
EC50 ([2]; Dengue virus, Vero C1008): > 6.25 µM
EC90 ([2]; Dengue virus, Vero C1008, Baseline response 0 %, Hill slope 1.695, Maximum measured 158.102 %, Maximum response 100 %, Minimum measured 53.067 %, R squared 0.44): > 6.25 µM

O=C(Nc1cnc2c(c1)CNC2)c1cc(F)cc2[nH]ncc12
EC50 ([1]; Zika virus, Vero C1008): > 50 µM
EC90 ([1]; Zika virus, Vero C1008, Baseline response 0 %, Hill slope 2.313, Maximum measured 10.311 %, Maximum response 100 %, Minimum measured -0.319 %, R squared 0.353): > 50 µM
EC50 ([2]; Dengue virus, Vero C1008): > 50 µM
EC90 ([2]; Dengue virus, Vero C1008, Maximum measured 142.482 %, Minimum measured 85.178 %): > 50 µM

Cc1cc(-c2cc(F)cc(C(=O)Nc3ccc4c(c3)CNC4)c2)[nH]n1
EC50 ([1]; Zika virus, Vero C1008): 19.3 µM
EC90 ([1]; Zika virus, Vero C1008, Baseline response 0 %, Hill slope 1.404, Maximum measured 64.496 %, Maximum response 100 %, Minimum measured 4.475 %, R squared 0.907): > 25 µM
EC50 ([2]; Dengue virus, Vero C1008): > 50 µM
EC90 ([2]; Dengue virus, Vero C1008, Baseline response 0 %, Hill slope 1.641, Maximum measured 129.562 %, Maximum response 100 %, Minimum measured 66.397 %, R squared 0.205): > 50 µM

N[C@H]1Cc2ccc(NC(=O)c3cccc4c3CC(=O)N4)cc2C1
EC50 ([1]; Zika virus, Vero C1008): > 50 µM
EC90 ([1]; Zika virus, Vero C1008, Maximum measured 1.094 %, Minimum measured -1.183 %): > 50 µM
EC50 ([2]; Dengue virus, Vero C1008): > 50 µM
EC90 ([2]; Dengue virus, Vero C1008, Maximum measured 137.168 %, Minimum measured 87.065 %): > 50 µM

O=C(Nc1ccc2c(c1)CNC2)c1cc(Cl)cc2cc[nH]c12
EC50 ([1]; Zika virus, Vero C1008): 1 µM
EC90 ([1]; Zika virus, Vero C1008, Baseline response 0 %, EC90 CI (lower) 0.797 uM, EC90 CI (upper) 4.564 uM, Hill slope 3.408, Maximum measured 129.449 %, Maximum response 100 %, Minimum measured 8.447 %, R squared 0.85): 1.91 µM
EC50 ([2]; Dengue virus, Vero C1008): 2.21 µM
EC90 ([2]; Dengue virus, Vero C1008, Baseline response 0 %, Hill slope -2.776, Maximum measured 94.432 %, Maximum response 100 %, Minimum measured 26.957 %, R squared 0.875): > 3.12 µM

O=C(Nc1ccc2c(c1)CNC2)c1cc(Cl)cc2ccccc12
EC50 ([1]; Zika virus, Vero C1008): > 50 µM
EC90 ([1]; Zika virus, Vero C1008, Baseline response 0 %, Hill slope -0.363, Maximum measured 9.094 %, Maximum response 100 %, Minimum measured -16.765 %, R squared 0.057): > 50 µM
EC50 ([2]; Dengue virus, Vero C1008): > 50 µM
EC90 ([2]; Dengue virus, Vero C1008, Baseline response 0 %, Hill slope 0.531, Maximum measured 139.444 %, Maximum response 100 %, Minimum measured 57.429 %, R squared 0.178): > 50 µM

O=C(NCCC1CC1)[C@H](Nc1ccc2c(c1)CNC2)c1cc(Cl)cc(C2CC2)c1
EC50 ([1]; Zika virus, Vero C1008): 5.72 µM
EC90 ([1]; Zika virus, Vero C1008, Baseline response 0 %, Hill slope 7.335, Maximum measured 65.758 %, Maximum response 100 %, Minimum measured 0.052 %, R squared 0.996): > 6.25 µM
EC50 ([2]; Dengue virus, Vero C1008): > 12.5 µM
EC90 ([2]; Dengue virus, Vero C1008, Baseline response 0 %, Hill slope -1.051, Maximum measured 118.853 %, Maximum response 100 %, Minimum measured 76.41 %, R squared 0.201): > 12.5 µM

CN(c1ccc2c(c1)CNC2)[C@H](C(=O)NCC(F)F)c1cc(Cl)cc(C2CC2)c1
EC50 ([1]; Zika virus, Vero C1008): 0.859 µM
EC90 ([1]; Zika virus, Vero C1008, Baseline response 0 %, EC90 CI (lower) 0.179 uM, EC90 CI (upper) 7.248 uM, Hill slope 7.833, Maximum measured 121.708 %, Maximum response 100 %, Minimum measured 8.623 %, R squared 0.915): 1.14 µM
EC50 ([2]; Dengue virus, Vero C1008): > 3.12 µM
EC90 ([2]; Dengue virus, Vero C1008, Baseline response 0 %, Hill slope -0.632, Maximum measured 86.584 %, Maximum response 100 %, Minimum measured 48.476 %, R squared 0.311): > 3.12 µM

O=C(Nc1ccc2c(c1)CNC2)c1cc(F)cc(-c2cn[nH]c2)c1
EC50 ([1]; Zika virus, Vero C1008): > 50 µM
EC90 ([1]; Zika virus, Vero C1008, Baseline response 0 %, Hill slope 1.1, Maximum measured 49.9 %, Maximum response 100 %, Minimum measured 5.357 %, R squared 0.912): > 50 µM
EC50 ([2]; Dengue virus, Vero C1008): 1.11 µM
EC90 ([2]; Dengue virus, Vero C1008, Baseline response 0 %, EC90 CI (lower) 0.042 uM, EC90 CI (upper) 0.221 uM, Hill slope -0.898, Maximum measured 65.167 %, Maximum response 100 %, Minimum measured 5.409 %, R squared 0.901): 12.8 µM

O=C(Nc1ccc2c(c1)CNC2)c1cc(Br)cc2[nH]c(=O)[nH]c12
EC50 ([1]; Zika virus, Vero C1008): > 50 µM
EC90 ([1]; Zika virus, Vero C1008, Baseline response 0 %, Hill slope 1.27, Maximum measured 26.011 %, Maximum response 100 %, Minimum measured -2.243 %, R squared 0.854): > 50 µM
EC50 ([2]; Dengue virus, Vero C1008): > 50 µM
EC90 ([2]; Dengue virus, Vero C1008, Maximum measured 135.314 %, Minimum measured 105.633 %): > 50 µM

CCOCCNC(=O)[C@H](Nc1ccc2c(c1)CNC2)c1cc(Cl)cc2[nH]ncc12
EC50 ([1]; Zika virus, Vero C1008): 39.6 µM
EC90 ([1]; Zika virus, Vero C1008, Baseline response 0 %, Hill slope 1.597, Maximum measured 58.987 %, Maximum response 100 %, Minimum measured -2.742 %, R squared 0.989): > 50 µM
EC50 ([2]; Dengue virus, Vero C1008): > 50 µM
EC90 ([2]; Dengue virus, Vero C1008, Maximum measured 134.278 %, Minimum measured 95.519 %): > 50 µM

O=C(NC1CCOCC1)[C@H](Nc1ccc2c(c1)CNC2)c1cc(Cl)cc2[nH]ncc12
EC50 ([1]; Zika virus, Vero C1008): 16.8 µM
EC90 ([1]; Zika virus, Vero C1008, Baseline response 0 %, Hill slope 1.579, Maximum measured 82.863 %, Maximum response 100 %, Minimum measured -0.215 %, R squared 0.968): > 50 µM
EC50 ([2]; Dengue virus, Vero C1008): > 50 µM
EC90 ([2]; Dengue virus, Vero C1008, Maximum measured 134.779 %, Minimum measured 105.958 %): > 50 µM

Cc1ccc(-c2nc3c(C(=O)Nc4ccc5c(c4)CNC5)cc(F)cc3[nH]2)cc1
EC50 ([1]; Zika virus, Vero C1008): > 50 µM
EC90 ([1]; Zika virus, Vero C1008, Baseline response 0 %, Hill slope 1.828, Maximum measured 11.314 %, Maximum response 100 %, Minimum measured -7.525 %, R squared 0.394): > 50 µM
EC50 ([2]; Dengue virus, Vero C1008): > 50 µM
EC90 ([2]; Dengue virus, Vero C1008, Baseline response 0 %, Hill slope -1.93, Maximum measured 263.734 %, Maximum response 225.04 %, Minimum measured 80.528 %, R squared 0.789): > 50 µM

COC(=O)c1cc(Br)cc2c(Cc3ccc(-c4nnn[nH]4)cc3)c[nH]c12
EC50 ([1]; Zika virus, Vero C1008): > 50 µM
EC90 ([1]; Zika virus, Vero C1008, Baseline response 0 %, Hill slope 0.557, Maximum measured 36.25 %, Maximum response 100 %, Minimum measured -2.518 %, R squared 0.117): > 50 µM
EC50 ([2]; Dengue virus, Vero C1008): > 50 µM
EC90 ([2]; Dengue virus, Vero C1008, Maximum measured 157.502 %, Minimum measured 51.504 %): > 50 µM

Reference: ChEMBL document CHEMBL5661943, “ASAP - In vitro antiviral effect” (2024)
